Laboratory results taken from patent publication US9084735B2, “Self-assembling bis-urea compounds for drug delivery” (International Business Machines Corporation, priority 2013, dated 2015).

Experiments:
[1] = system: S. aureus (ATCC No. 6538); assay: MIC by broth microdilution (OD600 growth inhibition); assay type: cell-based, Staphylococcus aureus; settings: for growth inhibition of S. aureus by nanofibers alone (OD): blank nanofibers without drug
Procedure: The minimum inhibitory concentrations (MICs) of the penG-loaded nanofibers were measured using a broth microdilution method. First, penG-loaded nanofiber solutions were diluted to give final penG concentrations of 0.05, 0.1, 0.5, 1.0, 5.0 and 10.0 mg/L. S. aureus was grown in tryptic soy broth (TSB) at 37° C. with 300 rpm. The optical density (OD) of the S. aureus solution was adjusted to OD600 nm=0.1 by the addition of TSB. This S. aureus solution was further diluted 100 times (5.7×10^6 CFU/mL). The penG-loaded nanofiber solution (100 microliters) was transferred to each well of a 96 well plate (NUNC), followed by the addition of 100 microliters of the S. aureus solution. TSB was used as a control. The optical density readings of S. aureus solutions were monitored by measuring OD600 nm at predetermined times (0 hours and 18 hours). The assay was performed in four replicates for each sample and the experiments were repeated at least three times.

[2] = Critical micelle concentration of cationic compounds; assay type: physicochemical; settings: in water
[3] = Nanofiber dimensions by AFM; assay type: physicochemical; settings: film/solution on mica
Procedure: Atomic force microscopy (AFM) images were acquired on commercial instrumentation under fluid in intermittent contact (‘tapping’) mode at a 0.5 Hz scan rate with silicon on nitride cantilevers of spring constant about 0.35 N/m. For this study, images were collected over scan areas from 1×1 micrometer to 10×10 micrometers at 1024×1024 pixel resolution. Samples were prepared by depositing 60 microliters of polymer solution (at a concentration appropriate for imaging) in water on mica. The statistical mean height (zm) of the nanoparticles was obtained through Gwyddion software for particle analysis using height threshold algorithm.
The dry nanofiber AFM (FIG. 3A) and solution AFM (FIGS. 3B and 3C) of nanofibers formed with C-4 show anisotropic structures having considerably shorter lengths and an average diameter of 4 nm.

[4] = Zeta potential of cationic nanofibers before and after drug encapsulation (piperacillin); assay type: physicochemical; settings: for zeta potential of nanofibers after drug loading: after piperacillin loading; for zeta potential of nanofibers before drug loading: before piperacillin loading
Description: The zeta potential of cationic nanofibers before and after drug encapsulation was investigated using the drug piperacillin and C-4 and C-14. […] The zeta potential values of nanofibers of C-14 before and after drug loading were 36.3 and 21.1 mV, respectively. The reduced zeta potential was attributed to the electrostatic interaction between cationic nanofiber and the drug. This proves the formation of a complex between cationic nanofiber and the drug.

[5] = Nanofiber morphology by TEM; assay type: physicochemical; settings: C-4 200 mg/L, C-14 80 mg/L
Procedure: The morphologies of the cationic compounds were analyzed by TEM (FEI Tecnai G^2 F20 electron microscope). Cationic compounds solution (5 microliters) were placed on a copper grid coated with carbon film and incubated for 1 minute. Phosphotungstic acid solution (0.1 w/v, 5 microliters) was applied and incubated for another minute. The extra sample on the grid was absorbed by filter paper. The samples were air-dried at room temperature. The TEM observations were carried out with an electron kinetic energy of 200 keV.
FIGS. 2A to 2C are transmission electron micrographs (TEM) of a cast film of the nanofibers formed with C-4 at different magnifications.

| Compound | growth inhibition of S. aureus by nanofibers alone (OD) [1] | CMC [2] [mg/L] | average fiber diameter (AFM) [3] [nm] | zeta potential of nanofibers after drug loading [4] [mV] | zeta potential of nanofibers before drug loading [4] [mV] | fiber length (TEM) [5] | fiber diameter (TEM) [5] [nm] | minimum concentration suppressing growth (MIC) ([1]; penG concentration, 18 hours, 5.7×10^6 CFU/mL, TSB) [µg/mL] |
| --- | --- | --- | --- | --- | --- | --- | --- | --- |
| NCCCCNC(=O)Nc1ccc(CNC(=O)c2ccc(C(=O)NCc3ccc(NC(=O)NCCCCN)cc3)cc2)cc1 [Compound C-4] | do not inhibit growth | 12 | 4 | 23.1 | 35.2 | several hundred |  |  |
| NCc1ccc(CNC(=O)Nc2ccc(CNC(=O)c3ccc(C(=O)NCc4ccc(NC(=O)NCc5ccc(CN)cc5)cc4)cc3)cc2)cc1 [Compound C-14] | do not inhibit growth | 20 |  | 21.1 | 36.3 | several hundred | ~5 |  |
| CC1(C)S[C@@H]2[C@H](NC(=O)Cc3ccccc3)C(=O)N2[C@H]1C(=O)[O-].[K+] [penG, Penicillin G potassium salt, reference compound] |  |  |  |  |  |  |  | 0.05 |
